# From ChEMBL document CHEMBL1811778, “The discovery and development of inhibitors of fatty acid amide hydrolase (FAAH)” (Bioorg Med Chem Lett, 2011)
# System: Rattus norvegicus
# Assay: In vivo inhibition of rat FAAH at 0.3 mg/kg, ip after 16 hrs
# Format: functional
# Conditions: route intraperitoneal
row,SMILES,inhibition in vivo at 0.3 mg/kg [%]
1,NC(=O)c1cccc(-c2cccc(OC(=O)NC3CCCCC3)c2)c1 [URB-597],70

# Biological target: T1, Fatty-acid amide hydrolase 1 (Homo sapiens, UniProt O00519)
# T1 sequence (O00519 whole entry): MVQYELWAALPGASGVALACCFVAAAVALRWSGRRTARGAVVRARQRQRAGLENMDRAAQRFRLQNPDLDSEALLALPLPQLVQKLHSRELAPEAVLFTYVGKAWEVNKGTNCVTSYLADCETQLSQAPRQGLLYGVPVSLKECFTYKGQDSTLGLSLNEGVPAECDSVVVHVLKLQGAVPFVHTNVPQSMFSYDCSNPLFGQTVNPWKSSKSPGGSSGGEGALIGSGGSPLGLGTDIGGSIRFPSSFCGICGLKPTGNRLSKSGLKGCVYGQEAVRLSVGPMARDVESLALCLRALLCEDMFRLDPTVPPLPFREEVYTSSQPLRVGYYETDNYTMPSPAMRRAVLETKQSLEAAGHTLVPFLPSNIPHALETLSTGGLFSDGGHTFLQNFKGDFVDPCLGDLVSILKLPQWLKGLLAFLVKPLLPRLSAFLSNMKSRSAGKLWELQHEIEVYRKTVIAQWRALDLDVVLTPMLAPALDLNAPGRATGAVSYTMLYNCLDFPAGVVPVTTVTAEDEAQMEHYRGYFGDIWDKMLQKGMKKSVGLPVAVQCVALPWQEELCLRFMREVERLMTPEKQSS
# Assay: Reversible inhibition of human FAAH
# Conditions: not given
row,SMILES,IC50 [nM]
1,CCn1c(=O)n(C2CCCN(c3nccc(-c4cc5ccccc5o4)n3)C2)c2ccccc21 (configuration not stated),10
2,CCN(CC)S(=O)(=O)N1CCc2c(ccnc2Nc2cnc3ccccc3c2)C1,< 100
3,CCn1ccc2cc(-c3ccc4oc(N5Cc6ccccc6C5)nc4c3)ccc21,1.3

# Biological target: T1, Fatty-acid amide hydrolase 1
# Assay: Inhibition of FAAH
# Conditions: not given
SMILES,Ki [nM],IC50 [nM]
O=C(CCCCCCc1ccccc1)c1ncc(-c2cnccn2)o1,5.3,
CCCCCCCC/C=C\CCCCCCC=O,40,
CCCCCCCC/C=C\CCCCCCC(=O)C(N)=O,16,
CCCCCCCC/C=C\CCCCCCC(=O)C(=O)OCC,1.4,
CCCCCCCC/C=C\CCCCCCC(=O)C(F)(F)F,2,
CCCCCCCCCCCCCCCCCC(=O)c1nc2ncccc2o1,11,
CCCCCCCCCCCCCCCC(=O)c1nc2ncccc2o1,1.9,
CCCCCCCCCCCCCC(=O)c1nc2ncccc2o1,1.7,
CCCCCCCCCC(=O)c1nc2ncccc2o1,0.75,
CCCCCCC(=O)c1nc2ncccc2o1,2.1,
CCCCCC(=O)c1nc2ncccc2o1,15,
CC(=O)c1nc2ncccc2o1,> 100000,
O=C(CCCCCCc1ccccc1)c1ncc(-c2cscn2)o1,5.8,
O=C(N1CCN(c2cccc(C(F)(F)F)c2)CC1)n1nnc2ccc(-c3ccc(Cl)cc3)nc21,,2
CN(CCCCCl)C(=O)n1cnc(-c2ccccc2)c1,,78
COc1ccc(N2CCN(C(=O)n3nnc4ccc(N5CCCC5)nc43)CC2)cc1,,1
O=C(N1CCC(Oc2ccc(OCc3cccc(F)c3)cc2)CC1)n1ccnc1,,0.093
O=C(CCCCCCc1ccccc1)c1ncc(-c2cocn2)o1,4.6,
CCCCCCCC(=O)c1nc2ncccc2o1,0.69,
CCCCCCCCCCCC(=O)c1nc2ncccc2o1,0.57,
O=C(CCCCCCc1ccccc1)c1ncc(-c2cccnn2)o1,5.6,
O=C(CCCCCCc1ccccc1)c1ncc(-c2ncccn2)o1,4.6,
CCCCC(=O)c1nc2ncccc2o1,50,
Cc1ccc2nc(-c3ccc(NC(=O)C4CCN(S(=O)(=O)c5cccs5)CC4)cc3)sc2c1,,18

# Biological target: T2, Fatty-acid amide hydrolase 1 (Rattus norvegicus, UniProt P97612)
# T2 sequence (P97612 whole entry): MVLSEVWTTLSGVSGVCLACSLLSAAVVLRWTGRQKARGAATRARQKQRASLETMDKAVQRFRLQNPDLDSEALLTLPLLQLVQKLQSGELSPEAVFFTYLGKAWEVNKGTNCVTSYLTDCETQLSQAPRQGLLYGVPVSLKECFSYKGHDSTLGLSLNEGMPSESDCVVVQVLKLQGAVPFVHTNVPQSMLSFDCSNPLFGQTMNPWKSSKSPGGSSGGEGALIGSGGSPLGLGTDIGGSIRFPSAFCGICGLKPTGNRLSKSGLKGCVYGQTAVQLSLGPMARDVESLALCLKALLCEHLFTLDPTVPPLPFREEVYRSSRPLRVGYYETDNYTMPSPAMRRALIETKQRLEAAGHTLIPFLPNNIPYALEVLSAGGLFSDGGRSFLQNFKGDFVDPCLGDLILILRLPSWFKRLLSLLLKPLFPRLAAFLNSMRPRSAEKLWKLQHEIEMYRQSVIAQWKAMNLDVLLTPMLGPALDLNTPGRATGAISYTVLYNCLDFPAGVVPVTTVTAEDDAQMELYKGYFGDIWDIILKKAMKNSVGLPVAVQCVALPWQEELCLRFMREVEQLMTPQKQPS
# Assay: Inhibition of rat FAAH assessed as conversion [14]C-oleamide to oleic acid
# Conditions: not given
row,SMILES,Ki [nM]
1,CCCCCCCC/C=C\CCCCCCCC(=O)c1nccn1C,> 100000
2,CCCCCCCC/C=C\CCCCCCCC(=O)C1=NCCO1,4500
3,CCCCCCCC/C=C\CCCCCCCC(=O)c1nc2cnccc2o1,7.2
4,CCCCCCCC/C=C\CCCCCCCC(=O)c1nc2cccnc2o1,11
